Patent publication US20250368649A1, “TETRAHYDROPYRIDOPYRIMIDINE PAN-KRAS INHIBITORS” (Mirati Therapeutics, Inc., priority 2022, published 2025)

Tests used:
KRas G12R = KRas G12R (Homo sapiens, UniProt P01116, G12R); assay: biochemical; details: Binding to KRas (IC50 nM) G12R, TR-FRET displacement, KRas G12R
PSN1 cells = assay: Inhibition of KRas-mediated phosphorylation of ERK (Cisbio HTRF pERK), PSN1 cells; format: cell-based; details: Homo sapiens, PSN1, 3 h, 3 hour compound incubation, Cisbio pERK HTRF
Method in brief: (§1)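 Seeding density of 6,000 cells per well was used, with cultures kept in RPMI/10% FBS from day 1.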

KRas G13D = KRas G13D (Homo sapiens, UniProt P01116, G13D); format: binding; details: TR-FRET displacement, read-out: Binding to KRas (IC50 nM) G13D
ASPC1 cells = assay: Inhibition of KRas-mediated phosphorylation of ERK (Cisbio HTRF pERK), ASPC1 cells; format: cell-based; details: Homo sapiens, ASPC1, 3 h, AsPC-1 cells; 3 hr compound incubation; Cisbio pERK HTRF
KRas G12S = KRas G12S (Homo sapiens, UniProt P01116, G12S); format: binding; details: TR-FRET displacement, read-out: Binding to KRas (IC50 nM) G12S
KRas WT = KRas WT (Homo sapiens, UniProt P01116); assay: KRas binding assay (TR-FRET displacement), KRas WT; details: TR-FRET displacement
KRas G12C = KRas G12C (Homo sapiens, UniProt P01116, G12C); format: binding; details: TR-FRET displacement, read-out: Binding to KRas (IC50 nM) G12C
KRas Q61H = KRas Q61H (Homo sapiens, UniProt P01116, Q61H); assay: KRas binding assay (TR-FRET displacement), KRas Q61H; details: TR-FRET displacement
MKN1 cells = assay: Inhibition of KRas-mediated phosphorylation of ERK (Cisbio HTRF pERK), MKN1 cells; format: cell-based; details: Homo sapiens, MKN-1, 3 hour compound incubation, Cisbio pERK HTRF
Method in brief: as §1

KRas G12D = KRas G12D (Homo sapiens, UniProt P01116, G12D); assay: biochemical; details: Binding to KRas (IC50 nM) G12D, TR-FRET displacement, KRas G12D
H727 cells = assay: Inhibition of KRas-mediated phosphorylation of ERK (Cisbio HTRF pERK), H727 cells; format: cell-based; details: Homo sapiens, NCI-H727, 3 h, 3 hr compound incubation, Cisbio pERK HTRF
KRas G12V = KRas G12V (Homo sapiens, UniProt P01116, G12V); assay: biochemical; details: Binding to KRas (IC50 nM) G12V, TR-FRET displacement, KRas G12V
KRas G12A = KRas G12A (Homo sapiens, UniProt P01116, G12A); format: binding; details: TR-FRET displacement, read-out: Binding to KRas (IC50 nM) G12A
H358 cells = assay: Inhibition of KRas-mediated phosphorylation of ERK (Cisbio HTRF pERK), H358 cells; format: cell-based; details: Homo sapiens, NCI-H358, 3 h, 3 hr compound incubation, Cisbio pERK HTRF
A549 cells = assay: Inhibition of KRas-mediated phosphorylation of ERK (Cisbio HTRF pERK), A549 cells; format: cell-based; details: Homo sapiens, A549, 3 h, 3 hr compound incubation, Cisbio pERK HTRF
HCT116 cells = assay: Inhibition of KRas-mediated phosphorylation of ERK (Cisbio HTRF pERK), HCT116 cells; format: cell-based; details: Homo sapiens, HCT-116, 3 h, 3 hr compound incubation, Cisbio pERK HTRF
H460 cells = assay: Inhibition of KRas-mediated phosphorylation of ERK (Cisbio HTRF pERK), H460 cells; format: cell-based; details: Homo sapiens, NCI-H460, 3 h, 3 hr compound incubation, Cisbio pERK HTRF

Sequence of KRas G12C (P01116 1-169 isoform P01116-2 G12C): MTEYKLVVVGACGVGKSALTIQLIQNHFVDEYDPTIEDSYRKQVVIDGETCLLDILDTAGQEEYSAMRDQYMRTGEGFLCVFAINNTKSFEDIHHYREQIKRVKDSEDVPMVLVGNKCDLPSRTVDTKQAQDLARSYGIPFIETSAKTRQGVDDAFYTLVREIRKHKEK
Sequence of KRas G12D (P01116 1-169 isoform P01116-2 G12D): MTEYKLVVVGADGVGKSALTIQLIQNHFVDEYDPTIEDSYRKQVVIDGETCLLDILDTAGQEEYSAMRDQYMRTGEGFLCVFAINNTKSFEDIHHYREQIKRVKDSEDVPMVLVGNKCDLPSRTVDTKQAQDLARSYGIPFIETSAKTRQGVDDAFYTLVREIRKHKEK
Sequence of KRas WT (P01116 1-169 isoform P01116-2): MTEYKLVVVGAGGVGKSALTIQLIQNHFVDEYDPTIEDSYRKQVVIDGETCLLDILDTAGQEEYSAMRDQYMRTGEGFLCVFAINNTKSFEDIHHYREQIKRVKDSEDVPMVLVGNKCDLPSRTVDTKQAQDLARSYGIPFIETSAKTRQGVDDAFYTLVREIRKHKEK
Sequence of KRas G12V (P01116 1-169 isoform P01116-2 G12V): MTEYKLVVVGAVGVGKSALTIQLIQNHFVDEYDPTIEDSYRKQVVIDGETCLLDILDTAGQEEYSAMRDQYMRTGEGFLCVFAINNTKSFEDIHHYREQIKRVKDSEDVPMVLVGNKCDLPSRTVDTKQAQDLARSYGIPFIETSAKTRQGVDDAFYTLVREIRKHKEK
Sequence of KRas G12S (P01116 1-169 isoform P01116-2 G12S): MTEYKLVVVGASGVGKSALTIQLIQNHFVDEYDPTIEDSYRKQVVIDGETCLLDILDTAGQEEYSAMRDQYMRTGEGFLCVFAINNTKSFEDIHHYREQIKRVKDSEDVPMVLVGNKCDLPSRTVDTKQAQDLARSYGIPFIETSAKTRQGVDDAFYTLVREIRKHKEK
Sequence of KRas Q61H (P01116 1-169 isoform P01116-2 Q61H): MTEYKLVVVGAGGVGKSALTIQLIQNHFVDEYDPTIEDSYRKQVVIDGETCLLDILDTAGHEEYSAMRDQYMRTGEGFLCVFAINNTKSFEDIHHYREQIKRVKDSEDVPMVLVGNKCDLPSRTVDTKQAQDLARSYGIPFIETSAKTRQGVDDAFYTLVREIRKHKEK
Sequence of KRas G13D (P01116 1-169 isoform P01116-2 G13D): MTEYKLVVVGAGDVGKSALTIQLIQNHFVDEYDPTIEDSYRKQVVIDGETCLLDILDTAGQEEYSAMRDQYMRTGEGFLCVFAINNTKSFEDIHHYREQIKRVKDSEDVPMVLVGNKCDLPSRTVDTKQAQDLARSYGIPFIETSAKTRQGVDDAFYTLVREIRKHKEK
Sequence of KRas G12A (P01116 1-169 isoform P01116-2 G12A): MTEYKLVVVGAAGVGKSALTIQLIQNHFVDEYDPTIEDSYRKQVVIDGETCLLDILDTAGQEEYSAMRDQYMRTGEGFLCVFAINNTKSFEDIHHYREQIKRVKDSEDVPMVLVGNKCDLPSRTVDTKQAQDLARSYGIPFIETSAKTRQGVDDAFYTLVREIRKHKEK
Sequence of KRas G12R (P01116 1-169 isoform P01116-2 G12R): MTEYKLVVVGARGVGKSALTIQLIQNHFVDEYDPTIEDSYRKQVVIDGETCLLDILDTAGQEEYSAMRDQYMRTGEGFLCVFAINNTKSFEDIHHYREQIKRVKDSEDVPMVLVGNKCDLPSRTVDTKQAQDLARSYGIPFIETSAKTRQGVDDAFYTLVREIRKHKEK

| SMILES | IC50 (KRas G12R) | IC50 (PSN1 cells) | IC50 (KRas G13D) | IC50 (ASPC1 cells) | IC50 (KRas G12S) | IC50 (KRas WT) | IC50 (KRas G12C) | IC50 (KRas Q61H) | IC50 (MKN1 cells) | IC50 (KRas G12D) | IC50 (H727 cells) | IC50 (KRas G12V) | IC50 (KRas G12A) | IC50 (H358 cells) | IC50 (A549 cells) | IC50 (HCT116 cells) | IC50 (H460 cells) |
| --- | --- | --- | --- | --- | --- | --- | --- | --- | --- | --- | --- | --- | --- | --- | --- | --- | --- |
| C[C@@H]1C[C@@H]1c1c(Cl)cc2[nH]ncc2c1N1CCc2c(nc(OCC34CCCN3CCC4)nc2N2CCC[C@]3(C2)NC(=O)NC3=O)C1 [Example 449, (R)-7-(7-(6-chloro-5-((1S,2R)-2-methylcyclopropyl)-1H-indazol-4-yl)-2-((hexahydro-1H-pyrrolizin-7a-yl)methoxy)-5,6,7,8-tetrahydropyrido[3,4-d]pyrimidin-4-yl)-1,3,7-triazaspiro[4.5]decane-2,4-dione] | < 2 nM | > 10000 nM | < 2 nM | 5760 nM | < 2 nM | < 2 nM | < 2 nM | < 2 nM | 53.7 nM | 3 nM | 2690 nM | < 2 nM | < 2 nM |  |  |  |  |
| CN(C)C(=O)c1cc2n(n1)CCCN(c1nc(OC[C@@]34CCCN3C[C@H](F)C4)nc3c1CCN(c1cccc4cccc(Cl)c14)C3)C2 [Example 483, 5-(7-(8-chloronaphthalen-1-yl)-2-(((2R,7aS)-2-fluorohexahydro-1H-pyrrolizin-7a-yl)methoxy)-5,6,7,8-tetrahydropyrido[3,4-d]pyrimidin-4-yl)-N,N-dimethyl-5,6,7,8-tetrahydro-4H-pyrazolo[1,5-a][1,4]diazepine-2-carboxamide] | 57 nM | > 10000 nM | 239 nM | 1160 nM | 46 nM | 150 nM | 42 nM | 238 nM | 1470 nM | 9 nM | 1220 nM | 20 nM | 81 nM |  |  |  |  |
| C=C1CN2CC(=C)CC2(COc2nc3c(c(N4C[C@@H]5C[C@H](C4)[C@H](O)C5)n2)CCN(c2cc(O)cc4ccc(F)c(CC)c24)C3)C1 [Example 579, (1R,5R,6R)-3-(2-((2,6-dimethylenetetrahydro-1H-pyrrolizin-7a(5H)-yl)methoxy)-7-(8-ethyl-7-fluoro-3-hydroxynaphthalen-1-yl)-5,6,7,8-tetrahydropyrido[3,4-d]pyrimidin-4-yl)-3-azabicyclo[3.2.1]octan-6-ol] |  | > 10000 nM |  | 699 nM | 3 nM | 4 nM | 4 nM |  | 18.3 nM | 7 nM | 513 nM | 2 nM |  | 204 nM | 168 nM | 968 nM | 227 nM |
| C=C1CN2CC(=C)CC2(COc2nc3c(c(N4CCC[C@@](C)(O)C4)n2)CCN(c2cc(O)cc4ccc(F)c(CC)c24)C3)C1 [Example 582, (R)-1-(2-((2,6-dimethylenetetrahydro-1H-pyrrolizin-7a(5H)-yl)methoxy)-7-(8-ethyl-7-fluoro-3-hydroxynaphthalen-1-yl)-5,6,7,8-tetrahydropyrido[3,4-d]pyrimidin-4-yl)-3-methylpiperidin-3-ol] |  | 2480 nM |  | 79 nM | 2 nM | < 2 nM | 2 nM |  | 3.1 nM | 3 nM | 204 nM | < 2 nM |  | 40 nM | 86 nM | 219 nM | 63 nM |
